From patent publication US20210154372A1, “MEDICAL DEVICE WITH DRUG-ELUTING COATING AND INTERMEDIATE LAYER” (C.R. Bard, Inc., priority 2017, published 2021)
Values belong to the compound of their own block, whether it stands above or below them.

Legend:
[1] = octanol/water; cited from earlier work
[2] = test system: tissues at the target site; test: drug absorption by tissue after 0.2-2 minute deployment of coated balloon; type: in vivo; details: coating with paclitaxel, after 0.2-2 minutes of deployment
Serum albumin = details: cited from earlier work
[3] = BSA added; cited from earlier work
[4] = stability of additive with paclitaxel under ethylene oxide sterilization, heating and aging; details: reacted with paclitaxel

Compound: PEG-20 sorbitan monolaurate [Tween 20]
log P [1]: about 3.0

Compound: O=C1O[C@H](CO)[C@@H](O)[C@H](O)[C@H]1O [gluconolactone]
drug absorption by tissue [2]: unexpectedly high

Compound: CO[C@H]1C[C@@H]2CC[C@@H](C)[C@@](O)(O2)C(=O)C(=O)N2CCCC[C@H]2C(=O)O[C@H]([C@H](C)C[C@@H]2CC[C@@H](O)[C@H](OC)C2)CC(=O)[C@H](C)/C=C(\C)[C@@H](O)[C@@H](OC)C(=O)[C@H](C)C[C@H](C)/C=C/C=C/C=C/1C [rapamycin]
protein bound (Serum albumin): 92%
share of protein binding that is to albumin (Serum albumin; primarily to albumin): 97%

Compound: COc1ccc(O)c(C(C)(C)C)c1 [Butylated hydroxyanisole]
log P [1]: 1.31

drug absorption by tissue [2]: unexpectedly high
Compound: O=C1O[C@H](CO)[C@@H](O)[C@H]1O [ribonic acid lactone]

Compound: CC(=O)O[C@H]1C(=O)[C@@]2(C)[C@H]([C@H](OC(=O)c3ccccc3)[C@]3(O)C[C@H](OC(=O)[C@H](O)[C@@H](NC(=O)c4ccccc4)c4ccccc4)C(C)=C1C3(C)C)[C@]1(OC(C)=O)CO[C@@H]1C[C@@H]2O [paclitaxel]
increase of solubility in PBS with the addition of BSA [3]: over 20 fold

Compound: OC[C@@H](O)[C@@H](O)[C@H](O)[C@@H](O)CO [sorbitol]
log P [1]: −4.67

Compound: O=C(O)c1ccccc1 [benzoic acid]
stability under ethylene oxide sterilization, heating, and aging process [4]: not stable
